The nature of the assay: inhibitors of Bluetongue virus cytopathic effect, confirmation, arbovirus, BSR cells (AID 1250). The conditions noted are these: BSR cells, Bluetongue virus CPE, ATP luminescence, 72 h; at 20 µM (top of the series).

SMILES strings stand for the structures. The source made the active and inactive calls.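 How the source made its calls: active means inhibition of at least 30% at one or more tested concentrations; inactive means inhibition below 30% at every dose.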

As to `O=C(Nc1nc(-c2ccccc2)cs1)c1ccc(=O)[nH]c1`, the CPE inhibition is 12% (inactive). With `Cc1cc(F)ccc1S(=O)(=O)Nc1ncnc2scc(-c3ccc(F)cc3)c12`, the CPE inhibition was 21.7% (inactive). With `CCOC(=O)c1c(NC(=O)CSc2ncn[nH]2)sc(C)c1C`, the CPE inhibition was 21% (inactive). On to `N#Cc1c(C(F)(F)F)cc(-c2ccc(Cl)cc2)[nH]c1=O`, for which the CPE inhibition was 25.9% (inactive). For `OCC1(CCOc2ccccc2)CCN(Cc2nc3ccc(F)cc3[nH]2)CC1` the value was 7.83% (inactive); for `COc1ccc2ccc(O)c(CN3CC=C(c4ccccc4)CC3)c2c1`, 14.6% (inactive). In the case of `COc1ccc2[nH]c(=O)c(CN(CCCN(C)C)C(=O)Nc3ccc(F)cc3)cc2c1`, the CPE inhibition is 7.66% (inactive). For `CCOC(=O)C1(CCCc2ccccc2)CCN(C2CCSCC2)CC1`, the CPE inhibition was 11.3% (inactive). As for `O=C(Nc1scc(-c2ccccc2)c1C(=O)O)c1ccco1`, the CPE inhibition is 10.9% (inactive). Regarding `COc1cc(-c2nnc(-c3ccc(N4CCOCC4)cc3)o2)cc(OC)c1OC`, the CPE inhibition was 8.33% (inactive). Take `CC(C)CSC1=NSC2=NC(=O)/C(=C\c3cccs3)C(=N)N12`: the CPE inhibition was 28.6% (inactive). For the compound `Cc1ccccc1S(=O)(=O)Nc1ncnc2scc(-c3ccccc3)c12`, the CPE inhibition is 20.4% (inactive). Take `C=CCn1c(N)c(C(=O)NCc2cccnc2)sc1=S`: the CPE inhibition was 2.55% (inactive). For `CCc1nnc(NC(=O)c2cc3ccccc3oc2=O)s1` the value was -0.17% (inactive). With `Cc1ccc(Nc2nc(N)c([N+](=O)[O-])c(N3CCOCC3)n2)cc1C`, the CPE inhibition was 11.3% (inactive). On to `COc1ccc(C2=Nn3c(nnc3-c3ccncc3)SC2)cc1OC`, for which the CPE inhibition was 20.1% (inactive). With `O=C(CSc1ncn(-c2ccccc2)n1)Nc1nc2ccccc2s1`, the CPE inhibition is 10.5% (inactive). For `O=C(NC1=NCCS1)c1ccc(Cl)c(S(=O)(=O)N2CCCC2)c1` the value was 12.3% (inactive); for `COc1ccc(C)cc1NC(=O)C1COc2ccccc2O1` (stereo unspecified), 11.1% (inactive); for `COc1ccccc1NC(=S)NCCSc1ccc(C)cc1`, 10.1% (inactive). With `Oc1ccc(Br)cc1-c1nc2cnccn2c1NC1CCCC1`, the CPE inhibition was 16.6% (inactive). Take `O=C(Nc1sc2c(c1C(=O)O)CCC2)c1cccs1`: the CPE inhibition was 14.7% (inactive). In the case of `O=C1NC(=O)/C(=C\c2ccc(Oc3ccc([N+](=O)[O-])cn3)cc2)S1`, the CPE inhibition was 12.8% (inactive). In the case of `CCCCOc1ccc(C(O)C(CN2CCCCC2)c2ccccc2)cc1` (stereo unspecified), the CPE inhibition is 12.5% (inactive).

On to `Cc1ccc(-n2nc(C)c(NC(=O)CCl)c2C)cc1`, for which the CPE inhibition was 13.3% (inactive).

`O=C(Nc1nnc(SCc2ccc(F)cc2)s1)c1ccc2c(c1)C(=O)N(c1ccccc1Cl)C2=O`: the CPE inhibition was 20.2% (inactive). For `CC1(C)C2CCC(C2)C1(C)NC(=O)CNCc1cccs1` (stereo unspecified), the CPE inhibition is 2.65% (inactive). Consider `COc1ccccc1C(=O)NCC1CCN(c2ccc(S(=O)(=O)N3CCOCC3)cc2)CC1`, for which the CPE inhibition is 6.04% (inactive). Take `CCCC(=O)Nc1cccc(NC(=O)c2ccc([N+](=O)[O-])cc2Cl)c1`: the CPE inhibition was 1.21% (inactive). For `NC(=O)c1cc([N+](=O)[O-])ccc1NCc1cccnc1`, the CPE inhibition was 3.11% (inactive). Under `O=C(CCn1c(=O)sc2ccccc21)NCCCn1ccnc1` stands 4.88% (inactive); under `O=C(Nc1nc2ccccc2s1)c1ccc(OCC2CCCO2)cc1` (stereo unspecified), 5.66% (inactive); under `O=C(O)c1ccccc1Nc1ccc([N+](=O)[O-])cc1`, 24.6% (inactive).

As to `Cc1cccc(S(=O)(=O)Nc2nc3ccccc3nc2NCc2ccco2)c1`, the CPE inhibition was 12.1% (inactive). Under `C=CCn1c(SCC(=O)Nc2nc3ccccc3s2)nnc1-c1ccccc1O` stands 21.1% (inactive); under `CSc1ccccc1NC(=O)CO/N=C(\C)c1cc2ccccc2o1`, 12.9% (inactive); under `Oc1ccc(-c2n[nH]c(=S)n2-c2ccc3c(c2)OCCO3)c(O)c1`, 18.1% (inactive).

Regarding `COCCn1c(SCC(=O)Nc2cc(Cl)ccc2OC)nc2c(c1=O)SC(C)C2` (stereo unspecified), the CPE inhibition was 17.7% (inactive).

In the case of `O=C(Nc1cccc(NC(=O)c2cccs2)c1)c1ccco1`, the CPE inhibition is 20.1% (inactive). In the case of `CCCc1c(OCCCCc2nn[nH]n2)ccc(C(C)=O)c1O`, the CPE inhibition was 12.8% (inactive).

In the case of `O=C(O)c1cnc(-c2ccccc2)nc1Sc1ccccc1Cl`, the CPE inhibition is 11.8% (inactive). With `CC(=O)Nc1ccc(-c2csc(NC(=O)c3ccc(C)o3)n2)cc1`, the CPE inhibition was 27.8% (inactive).

With `CCOc1cccc(C(=O)Nc2ccccc2N2CCN(C(=O)C(C)C)CC2)c1`, the CPE inhibition was 9.61% (inactive). On to `COc1ccc(/C=C/c2nc(-c3ccccc3O)n[nH]2)cc1OC`, for which the CPE inhibition is 14% (inactive). For `CC(=O)Nc1ccc(SCC(=O)N(CCC#N)c2cc(C)cc(C)c2)cc1` the value was 18% (inactive); for `COCC(C)n1c(SCc2nc3ccccc3c(=O)[nH]2)nc2ccccc2c1=O` (stereo unspecified), 29.9% (inactive); for `O=C1N=c2ccccc2=C1c1sc(Nc2ccc(O)cc2)nc1O`, 14.8% (inactive). Take `COc1ccc(S(=O)(=O)N/N=C(/C)c2cccc(NC(=O)c3ccccc3Cl)c2)cc1`: the CPE inhibition was 15% (inactive).

In the case of `O=C(Nc1ccccc1C(=O)O)c1ccc(Br)c(S(=O)(=O)NCc2ccccc2)c1`, the CPE inhibition was 21.6% (inactive). On to `O=C(/C=C/c1ccc2c(c1)OCCCO2)c1ccc2ccccc2c1O`, for which the CPE inhibition is 18.2% (inactive). On to `CCCCCc1nnc(NC(=O)C2COc3ccccc3O2)s1` (stereo unspecified), for which the CPE inhibition is 17.9% (inactive). For the compound `Cc1nn2c(-c3ccccc3)c(-c3ccccc3)nc2[nH]c1=O`, the CPE inhibition was 9.59% (inactive). With `N=C(N)SCc1nc2ccccc2c(=O)n1-c1ccccc1`, the CPE inhibition is -4.62% (inactive).

Consider `Cc1ccccc1CSc1nnc(NC(=O)C2COc3ccccc3O2)s1` (stereo unspecified), for which the CPE inhibition is 18.9% (inactive). For `O=C(Nc1ccccc1C(=O)O)c1cccc(NC(=O)c2ccc(Br)o2)c1`, the CPE inhibition was 7.57% (inactive). On to `COc1ccc(NS(=O)(=O)c2cc(NC(=O)/C=C/c3cccs3)ccc2N2CCOCC2)cc1`, for which the CPE inhibition was 18.4% (inactive). With `Oc1ccccc1CN1CCCN(Cc2ccccc2O)C1`, the CPE inhibition was 2.17% (inactive). `Cc1nnc2sc(SCc3cccc(Cl)c3)nn2c1=O`: the CPE inhibition is 14.2% (inactive). For `Cc1cc(C(=O)CSc2nnc(-c3ccco3)o2)c(C)n1Cc1ccco1`, the CPE inhibition is 2.98% (inactive). Turning to `O=[N+]([O-])c1ccc(NCCNCCOc2nonc2-c2ccccc2)c([N+](=O)[O-])c1`, the CPE inhibition was 6.24% (inactive). As for `O=C(O)CSc1nc(-c2ccc(Cl)cc2)nc2c1oc1ccccc12`, the CPE inhibition is 24.1% (inactive). As to `Cc1ccc(OCCSCc2nnc(NC(=O)Nc3cccc(Cl)c3)s2)cc1`, the CPE inhibition was 19.4% (inactive). Under `Cc1cccc(-n2c(=O)c3c4c(sc3n3c(=S)[nH]nc23)CCC4)c1` stands 7.97% (inactive).

As for `CS(=O)(=O)c1nsc2nc(=O)c(/C=C3\C=Nc4ccccc43)c(N)n12`, the CPE inhibition was 14.8% (inactive). `Cc1csc(NC(=O)c2ccc(C)c(S(=O)(=O)N3CCCCC3)c2)n1`: the CPE inhibition is 24.1% (inactive). For `Cc1ccc(N2CN=c3s/c(=C\c4ccccn4)c(=O)n3C2)cc1` the value was -1.84% (inactive); for `Cn1c(Oc2ccccc2NCc2cc(Br)ccc2O)cc(=O)n(C)c1=O`, 14.3% (inactive). Regarding `O=C(O)c1cccc(NC(=S)NC(=O)c2ccc(-c3ccc(Cl)cc3)o2)c1`, the CPE inhibition is 29.9% (inactive). As for `CCCCn1c(SCc2cccc([N+](=O)[O-])c2)nc2ccsc2c1=O`, the CPE inhibition is 3.1% (inactive).

Regarding `COc1cccc2sc(NN)nc12`, the CPE inhibition was 15.8% (inactive). Consider `CCOC(=O)c1ccc(N2CCN(c3ccccc3F)CC2)c(NC(=O)Nc2ccccc2)c1`, for which the CPE inhibition was 19.7% (inactive).

Regarding `COc1ccccc1N1CCN(Cc2ccc(OC)c3ccccc23)CC1`, the CPE inhibition was 11.1% (inactive). On to `O=C1CC(c2ccc(Br)cc2)NC(c2ccc(Br)cc2)C1c1ccccc1` (stereo unspecified), for which the CPE inhibition was 7.99% (inactive).

With `O=C(O)c1c(NC(=O)c2cccc3ccccc23)sc2c1CCC2`, the CPE inhibition was 0.01% (inactive). For the compound `CC(C)(C)C1CCc2c(sc(NC(=O)C3CC=CCC3C(=O)O)c2C#N)C1` (stereo unspecified), the CPE inhibition is 26.8% (inactive). With `CCc1ccc(CCC(=O)Nc2ccccc2C(=O)O)o1`, the CPE inhibition is 21.9% (inactive). Consider `COc1cccc(-n2c(C)cc(/C=C3/C(=N)N4C(=NC3=O)SN=C4S(C)(=O)=O)c2C)c1`, for which the CPE inhibition is 19.6% (inactive). With `C/C(=N\NS(=O)(=O)c1ccccc1)c1cccc(NC(=O)c2cccc(Cl)c2)c1`, the CPE inhibition is 15.9% (inactive).

Regarding `Cc1ccccc1OCCSCc1nc2ccccc2[nH]1`, the CPE inhibition is 24.9% (inactive). As for `CCOC(=O)c1ccc(NC(=S)N2CCSC2c2c(F)cc(F)cc2F)cc1` (stereo unspecified), the CPE inhibition is 11.8% (inactive). For `COc1ccc2c(c1)c1nc3ccccc3nc1n2Cc1ccc(OC)c(OC)c1` the value was 15.8% (inactive). Under `O=C(Nc1nc(-c2ccc3c(c2)OCO3)cs1)C1COc2ccccc2O1` (stereo unspecified) stands 22.7% (inactive). Take `COc1cccc(C2CC(c3ccc(Cl)cc3Cl)Nc3nc(N)nn32)c1` (stereo unspecified): the CPE inhibition was 2.82% (inactive).

Consider `Brc1ccccc1/C=N/Nc1ccc2ccccc2n1`, for which the CPE inhibition is 14.7% (inactive). With `CCn1c(COc2cccc3ccccc23)nnc1SCC(=O)OC1CCCCC1`, the CPE inhibition was 2.2% (inactive). `Cc1nc(CNS(=O)(=O)c2cccnc2)cs1`: the CPE inhibition is 4.68% (inactive).

(Values after PubChem BioAssay AID1250 (SRMLSC, 2008).)
